Laboratory results: ChEMBL document CHEMBL2331127, “3D-QSAR and docking studies of pentacycloundecylamines at the sigma-1 (σ1) receptor” (Bioorg Med Chem Lett, 2013)

target: Sigma non-opioid intracellular receptor 1 (Rattus norvegicus, UniProt Q9R0C9); experiment: Displacement of [3H](+)-pentazocine from sigma-1 receptor in rat liver homogenate; type: tissue-based
Sequence (Q9R0C9 whole entry): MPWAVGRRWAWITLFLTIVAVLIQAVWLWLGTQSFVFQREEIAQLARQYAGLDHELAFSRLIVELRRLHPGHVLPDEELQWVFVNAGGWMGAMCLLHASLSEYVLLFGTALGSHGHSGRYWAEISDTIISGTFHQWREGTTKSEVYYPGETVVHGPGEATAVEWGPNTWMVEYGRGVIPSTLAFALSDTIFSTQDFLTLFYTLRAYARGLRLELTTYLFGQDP

Compound | IC50 [nM]
c1ccc(CCNC23OC4C5C6CC(C7C6C4C72)C53)cc1 (stereo not drawn) | 1540
c1ccc(CNC23OC4C5C6CC(C7C6C4C72)C53)cc1 (stereo not drawn) | 1780

target: Sigma non-opioid intracellular receptor 1 (Cavia porcellus, UniProt Q60492); experiment: Displacement of [3H](+)-pentazocine from sigma-1 receptor in guinea pig brain
Sequence (Q60492 whole entry): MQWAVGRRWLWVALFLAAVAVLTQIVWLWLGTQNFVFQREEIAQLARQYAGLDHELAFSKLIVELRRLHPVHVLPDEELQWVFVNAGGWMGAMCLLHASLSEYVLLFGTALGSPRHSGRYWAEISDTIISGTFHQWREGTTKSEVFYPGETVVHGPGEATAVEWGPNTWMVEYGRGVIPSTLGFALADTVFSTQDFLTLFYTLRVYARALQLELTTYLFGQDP

Compound | Ki [nM]
OC12C3C4CC5C6C4C1C6C(C53)N2Cc1ccccc1 (stereo not drawn) | 102
OC12C3C4CC5C6C4C1C6C(C53)N2CCCc1ccccc1 (stereo not drawn) | 20.9
OC12C3C4CC5C6C4C1C6C(C53)N2CCCCc1ccccc1 (stereo not drawn) | 8.91
COc1ccc(CN2C3C4C5CC6C7C5C3C7C2(O)C64)cc1 (stereo not drawn) | 102
OC12C3C4CC5C6C4C1C6C(C53)N2CCc1ccccc1 (stereo not drawn) | 20
OC12C3C4CC5C6C4C1C6C(C53)N2CCc1ccc(Cl)c(Cl)c1 (stereo not drawn) | 10
OC12C3C4CC5C6C4C1C6C(C53)N2CCc1cccc(Cl)c1 (stereo not drawn) | 20.9
OC12C3C4CC5C6C4C1C6C(C53)N2CCc1ccc(Br)cc1 (stereo not drawn) | 10
OC12C3C4CC5C6C4C1C6C(C53)N2Cc1cccc(Cl)c1 (stereo not drawn) | 186
Cc1cccc(CN2C3C4C5CC6C7C5C3C7C2(O)C64)c1 (stereo not drawn) | 97.7
OC12C3C4CC5C6C4C1C6C(C53)N2Cc1cccc(C(F)(F)F)c1 (stereo not drawn) | 269
O=[N+]([O-])c1cccc(CN2C3C4C5CC6C7C5C3C7C2(O)C64)c1 (stereo not drawn) | 1100
OC12C3C4CC5C6C4C1C6C(C53)N2Cc1ccccc1F (stereo not drawn) | 182
OC12C3C4CC5C6C4C1C6C(C53)N2Cc1ccc(F)c(F)c1 (stereo not drawn) | 200
OC12C3C4CC5C6C4C1C6C(C53)N2Cc1ccc(F)cc1 (stereo not drawn) | 107
OC12C3C4CC5C6C4C1C6C(C53)N2Cc1ccc(I)cc1 (stereo not drawn) | 81.3
OC12C3C4CC5C6C4C1C6C(C53)N2Cc1cccc(I)c1 (stereo not drawn) | 170
OC12C3C4CC5C6C4C1C6C(C53)N2Cc1ccc(Br)cc1 (stereo not drawn) | 85.1
OC12C3C4CC5C6C4C1C6C(C53)N2Cc1cccc(Br)c1 (stereo not drawn) | 209
OC12C3C4CC5C6C4C1C6C(C53)N2CCc1cccc(F)c1 (stereo not drawn) | 10
OC12C3C4CC5C6C4C1C6C(C53)N2Cc1cccc(F)c1 (stereo not drawn) | 151
